Reference: patent EP4800018A1, “PAN-KRAS INHIBITOR AND USE THEREOF IN MEDICINES” (Betta Pharmaceuticals Co., Ltd., priority 2023, dated 2025)

Key:
[1] = PK Study of Compounds in Rats; format: in vivo, Male SD rats; details: mean; for AUC(0-t): read-out: AUC0-t; for Cmax: read-out: C0/Cmax
Procedure: (§1) The test compound was mixed with the vehicle (10% DMSO/5% Solutol/85% physiological saline), vortexed and sonicated to prepare a clear 0.5 mg/mL intravenous injection solution. The test compound was mixed with the vehicle (20% PEG400/10% Solutol/70% pH 4.5 acetate buffer), vortexed and sonicated to prepare a clear 1 mg/mL oral solution. Male SD rats aged 6 to 7 weeks were selected and administered the test compound via intravenous (IV) and oral (PO) routes, respectively. Whole blood samples were collected at 5 min, 15 min, 30 min, 1 h, 2 h, 4 h, 7 h, and 24 h for the intravenous route, and at 15 min, 30 min, 1 h, 2 h, 4 h, 7 h, and 24 h for the oral route. Drug concentrations were analyzed by LC-MS/MS method, and pharmacokinetic parameters were calculated using Phoenix WinNonlin software (Pharsight, USA).

KRAS G12D-cRAF = biological target: T1, KRAS G12D-cRAF (Homo sapiens, UniProt P01116, G12D); test: Cellular KRAS G12D-cRAF Binding Inhibition Assay (NanoBRET, AD293 stable cells); format: cell-based; details: 3 h incubation, read-out: NanoBRET KRAS G12D
T1 construct: expressed in transfected cells
How it was run: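 IC50 values derive from fitted % inhibition, normalised to maximum signal and medium-only blank. The read-out is NanoBRET between KRAS G12D-NanoLuc (donor) and cRAF RBD-HaloTag labelled with the 618 ligand (acceptor), in live stably transfected AD293 cells at 1×10^4/well.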

[2] = tested on: KRAS-G12D mutant tumor cells AGS; test: Cell Proliferation Inhibition Assay (AGS), Cell-titer GLO, 96 h; format: cell-based; details: Homo sapiens, AGS, 96 h, AGS cells, 96 h incubation, Cell-titer GLO; read-out: AGS(G12D)
How it was run: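 Inhibition % was derived from CellTiter-Glo luminescence (max minus measured, over max minus blank) and fitted to give IC50. Cells were KRAS-G12D AGS in low-attachment wells, treated for 96 h at 37°C.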

KRAS G12V-cRAF = biological target: T2, KRAS G12V-cRAF (Homo sapiens, UniProt P01116, G12V); test: Cellular KRAS G12V-cRAF Binding Inhibition Assay (NanoBRET, AD293 stable cells); format: cell-based; details: 3 h incubation, read-out: NanoBRET KRAS G12V
T2 construct: expressed in transfected cells
How it was run: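 Binding measured as BRET between NanoLuc and HaloTag-bound NanoBRET 618 ligand (added overnight) in stably expressing AD293 cells. Signals were converted to percent inhibition against max and blank wells and fitted for IC50.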

[3] = PK Study of Compounds in Mice; format: in vivo, Female ICR mice; details: mean; for Cmax: read-out: C0/Cmax
Procedure: as §1, with “0.2” for “0.5”, “Female ICR mice” for “Male SD rats”

[4] = tested on: KRAS-G12V mutant tumor cells SW620; test: Cell Proliferation Inhibition Assay (SW620), Cell-titer GLO, 96 h; format: cell-based; details: Homo sapiens, SW-620, 96 h, SW620 cells, 96 h incubation, Cell-titer GLO; read-out: SW620(G12V)
How it was run: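 Readout: Cell-titer GLO luminescence after 96 h at 37°C, converted to percent inhibition against 0.5% DMSO and blank controls, with IC50 from curve fit. Low-attachment SW620 cultures (1×10^3 cells/well) were dosed at 10000–0.03 nM final.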

[5] = PO 10 mg/kg vs IV 1 mg/kg (n=3)
[6] = male, SD, rat, whole blood, IV 1 mg/kg (n=3)
[7] = male, SD, rat, whole blood, PO 10 mg/kg (n=3)
[8] = female, ICR, mouse, whole blood, IV 1 mg/kg (n=3)
[9] = female, ICR, mouse, whole blood, PO 10 mg/kg (n=3)

T2 sequence (P01116 1-188 isoform P01116-2 G12V): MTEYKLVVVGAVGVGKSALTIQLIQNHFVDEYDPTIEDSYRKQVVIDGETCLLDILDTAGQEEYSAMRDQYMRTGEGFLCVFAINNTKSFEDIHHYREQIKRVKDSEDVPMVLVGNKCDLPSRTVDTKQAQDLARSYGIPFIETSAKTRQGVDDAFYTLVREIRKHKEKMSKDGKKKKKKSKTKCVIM
T1 sequence (P01116 1-188 isoform P01116-2 G12D): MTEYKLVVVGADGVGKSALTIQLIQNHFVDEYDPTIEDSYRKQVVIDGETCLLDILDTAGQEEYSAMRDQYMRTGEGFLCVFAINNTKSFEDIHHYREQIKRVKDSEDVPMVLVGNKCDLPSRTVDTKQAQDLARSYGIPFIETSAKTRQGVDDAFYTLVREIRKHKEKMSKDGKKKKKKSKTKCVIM

With `CC1OCCCn2c(c3c4cc(ccc42)-c2csc(n2)CC(NC(=O)C2C(C)C2C)C(=O)N2NC(C(=O)OCC(C)(C)C3)C3CC2C3)-c2cc(N3CCN(C4COC4)CC3)cnc21` [Example 198, (1r,2R,3S)-N-((1^5S,6^4S,4S,Z)-1^2-(4-(oxetan-3-yl)piperazin-1-yl)-1^5,10,10-trimethyl-5,7-dioxo-1^8 ,1^9-dihydro-1^5H,1^7H-8-oxa-6^2,6^3-diaza-1(13,15)-pyrido[3',2':7,8][1,5]oxazonino[5,6-a]indola-2(4 ,2)-thiazola-6(2,4)-bicyclo[3.1.1]heptanacycloundecaphane-4-yl)-2,3-dimethylcyclopropane-1-ca rboxamide] the F [1, 5] was 32.4, the clearance [1, 6] was 2.22 mL/min/kg and the half-life [1, 6] was 7.22 h. The AUC(0-t) [1, 6] was 6940 ng·h/mL, the Cmax [1, 6] was 6060 ng/mL and the Vd ([1]; male, SD, rat, whole blood, IV 1 mg/kg (n=3), read-out: Vss) was 1.08 L/kg. The AUC(0-t) [1, 7] was 22500 ng·h/mL, the Cmax [1, 7] was 2060 ng/mL and the Tmax ([1]; male, SD, rat, whole blood, PO 10 mg/kg (n=3), read-out: Tmax) was 3.33 h. It also gave an IC50 (KRAS G12D-cRAF) of 2 nM, an IC50 [2] of 0.37 nM and an IC50 (KRAS G12V-cRAF) of 8.4 nM. It also gave an F [3, 5] of 54.0, an AUC(0-t) [3, 8] of 2450 ng·h/mL and a clearance [3, 8] of 5.75 mL/min/kg. It also gave a half-life [3, 8] of 8.9 h, a Cmax [3, 8] of 462 ng/mL and a Vd ([3]; female, ICR, mouse, whole blood, IV 1 mg/kg (n=3), read-out: Vss) of 4.66 L/kg. The AUC(0-t) [3, 9] was 13200 ng·h/mL, the Tmax [3, 9] was 2 h and the Cmax [3, 9] was 1300 ng/mL. The IC50 [4] was 0.09 nM.
